# Measurements as given in patent US12473339B2, “Acylated glucagon analogues” (Zealand Pharma A/S, priority 2013, dated 2025).
# pEC50: −log10 of the molar value. *1 amine or outer side, *2 acyl side, *3 side chain or, on linkers, in order; H or OH if unused. Where a SMILES comes first, the peptide text is derived from it. Side-chain parts run from the residue outwards. [ ]: non-standard residue; d: D form. The star is where a group is joined. C18 diacid = O=C(O)CCCCCCCCCCCCCCCCC(=O)*; γGlu = O=C(O)[C@H](CCC(=O)[*:2])N[*:1]; AEEA = NCCOCCOCC(=O)O; Aib = CC(C)(N)C(=O)O
# Biological target: T1, human glucagon-like peptide 1 receptor (GLP-1R) (Homo sapiens, UniProt P43220)
# T1 construct: expressed in transfected cells
# Assay: GLP-1 receptor efficacy assay (cAMP AlphaScreen, CHO cells)
# Assay type: cell-based
# Settings: for Ratio GLP-1/Glucagon: EC50 [GLP-1R] / EC50 [Glucagon-R], human receptors in CHO-K1
# Text: The cDNA encoding either the human glucagon receptor (Glucagon-R) (primary accession number P47871) or the human glucagon-like peptide 1 receptor (GLP-1R) (primary accession number P43220) were synthesized and cloned into a mammalian expression vector containing a Zeocin resistance marker.
# The mammalian expression vectors encoding the Glucagon-R or the GLP-1-R were transfected into Chinese hamster ovary (CHO) cells by the Attractene method. Stably expressing clones were obtained by Zeocin selection (250 μg/mL) upon limited dilution of cells resistant to the selection pressure. Glucagon-R and GLP-1-R cell clones expressing were picked, propagated and tested in the Glucagon-R and GLP-1-R efficacy assays as described below. One Glucagon-R expressing clone and one GLP-1-R expressing clone were chosen for compound profiling.
# CHO cells expressing the human Glucagon-R, or human GLP-1-R were seeded 24 hours prior to the assay at 30,000 cells per well in 96-well microtiter plates in culture in 100 μl growth medium. On the day of analysis, growth medium was removed and the cells were washed once with 200 μl of assay buffer (Krebs-Ringer-buffer—KRBH). The buffer was removed and the cells were incubated for 15 min at room temperature in 10 μl KRBH (KRBH+10 mM HEPES, 5 mM NaHCO3, 0.1% (V/V) BSA) with 0.1 mM IBMX in deionized water containing increasing concentrations of test peptides. The reaction was stopped by the addition of lysis buffer (0.1% w/v BSA, 5 mM HEPES, 0.3% v/v Tween-20). After cell lysis for 10 min at room temperature, lysates were transferred to 384-well plates and 10 μl of acceptor/donorbead mixture as contained in the AlphaScreen™ cAMP Functional Assay Kit was added. After one hour of incubation at room temperature in the dark, the cAMP content was determined applying the AlphaScreen™ cAMP Functional Assay Kit from Perkin-Elmer according to manufacturer instructions. EC50 and relative efficacies compared to reference compounds (glucagon and GLP-1) were calculated applying computer aided curve fitting. The GLP-1/glucagon ratio is calculated as defined earlier.
# T1 sequence (P43220 24-463): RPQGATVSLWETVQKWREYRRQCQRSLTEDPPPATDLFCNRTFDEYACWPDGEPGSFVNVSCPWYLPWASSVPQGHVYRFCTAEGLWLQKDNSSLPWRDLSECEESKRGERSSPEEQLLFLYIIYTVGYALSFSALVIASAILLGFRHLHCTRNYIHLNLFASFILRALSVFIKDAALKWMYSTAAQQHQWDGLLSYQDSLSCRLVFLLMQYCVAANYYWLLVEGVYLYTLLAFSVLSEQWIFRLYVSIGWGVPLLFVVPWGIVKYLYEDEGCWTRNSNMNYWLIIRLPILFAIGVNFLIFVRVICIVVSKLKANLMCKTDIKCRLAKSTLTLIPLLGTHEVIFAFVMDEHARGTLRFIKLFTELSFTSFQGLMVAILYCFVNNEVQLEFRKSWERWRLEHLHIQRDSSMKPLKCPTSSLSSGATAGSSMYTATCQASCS
Ratio GLP-1/Glucagon,"pEC50 (cAMP formation, CHO cells expressing human GLP-1-R, 15 min, read-out: EC50 hGLP-1R CHO-K1)",Structure (SMILES)
8.82,9.01,"CC[C@H](C)[C@H](NC(=O)[C@H](Cc1ccccc1)NC(=O)[C@H](CC(=O)O)NC(=O)[C@H](CCCCN)NC(=O)[C@H](C)NC(=O)[C@H](C)NC(=O)[C@H](CCCNC(=N)N)NC(=O)[C@H](CCCCNC(=O)CNC(=O)CNC(=O)[C@H](CO)NC(=O)CNC(=O)[C@H](CO)NC(=O)CNC(=O)CC[C@H](NC(=O)CCCCCCCCCCCCCCCCC(=O)O)C(=O)O)NC(=O)[C@H](CC(=O)O)NC(=O)[C@H](CC(C)C)NC(=O)[C@H](Cc1ccc(O)cc1)NC(=O)[C@H](CCCCN)NC(=O)[C@H](CO)NC(=O)[C@H](Cc1ccc(O)cc1)NC(=O)[C@H](CC(=O)O)NC(=O)[C@H](CO)NC(=O)[C@@H](NC(=O)[C@H](Cc1ccccc1)NC(=O)[C@@H](NC(=O)CNC(=O)[C@H](CCC(N)=O)NC(=O)C1(NC(=O)[C@@H](N)Cc2c[nH]cn2)CCC1)[C@@H](C)O)[C@@H](C)O)C(=O)N[C@@H](CCC(=O)O)C(=O)N[C@@H](Cc1c[nH]c2ccccc12)C(=O)N[C@@H](CC(C)C)C(=O)N[C@@H](CCC(=O)O)C(=O)N[C@@H](CO)C(=O)N[C@@H](C)C(N)=O [Compound 7, H-H-Ac4c-QGTFTSDYSKYLD-K([17-carboxy-heptadecanoyl]-isoGlu-GSGSGG)-RAAKDFIEWLESA-NH2]"
0.63,–,CC[C@H](C)[C@H](NC(=O)[C@H](Cc1ccccc1)NC(=O)[C@H](CC(=O)O)NC(=O)[C@H](CCCCN)NC(=O)[C@H](C)NC(=O)[C@H](C)NC(=O)[C@H](CCCNC(=N)N)NC(=O)[C@H](CCC(=O)O)NC(=O)[C@H](CC(=O)O)NC(=O)[C@H](CC(C)C)NC(=O)[C@H](Cc1ccc(O)cc1)NC(=O)[C@H](CCCCN)NC(=O)[C@H](CO)NC(=O)[C@H](Cc1ccc(O)cc1)NC(=O)[C@H](CC(=O)O)NC(=O)[C@H](CO)NC(=O)[C@@H](NC(=O)[C@H](Cc1ccccc1)NC(=O)[C@@H](NC(=O)CNC(=O)[C@H](CCC(N)=O)NC(=O)C1(NC(=O)[C@@H](N)Cc2c[nH]cn2)CCC1)[C@@H](C)O)[C@@H](C)O)C(=O)N[C@@H](CCCCNC(=O)CNC(=O)CNC(=O)[C@H](CO)NC(=O)CNC(=O)[C@H](CO)NC(=O)CNC(=O)CC[C@H](NC(=O)CCCCCCCCCCCCCCCCC(=O)O)C(=O)O)C(=O)N[C@@H](Cc1c[nH]c2ccccc12)C(=O)N[C@@H](CC(C)C)C(=O)N[C@@H](CCC(=O)O)C(=O)N[C@@H](CO)C(=O)N[C@@H](C)C(N)=O [Compound 13]
0.65,–,CC[C@H](C)[C@H](NC(=O)[C@H](Cc1ccccc1)NC(=O)[C@H](CC(=O)O)NC(=O)[C@H](CCCCN)NC(=O)[C@H](C)NC(=O)[C@H](C)NC(=O)[C@H](CCCNC(=N)N)NC(=O)[C@H](CCC(=O)O)NC(=O)[C@H](CC(=O)O)NC(=O)[C@H](CC(C)C)NC(=O)[C@H](Cc1ccc(O)cc1)NC(=O)[C@H](CCCCN)NC(=O)[C@H](CO)NC(=O)[C@H](Cc1ccc(O)cc1)NC(=O)[C@H](CC(=O)O)NC(=O)[C@H](CO)NC(=O)[C@@H](NC(=O)[C@H](Cc1ccccc1)NC(=O)[C@@H](NC(=O)CNC(=O)[C@H](CCC(N)=O)NC(=O)C1(NC(=O)[C@@H](N)Cc2c[nH]cn2)CCC1)[C@@H](C)O)[C@@H](C)O)C(=O)N[C@@H](CCC(=O)O)C(=O)N[C@@H](Cc1c[nH]c2ccccc12)C(=O)N[C@@H](CC(C)C)C(=O)N[C@@H](CCC(=O)O)C(=O)N[C@@H](CCCCNC(=O)CNC(=O)CNC(=O)[C@H](CO)NC(=O)CNC(=O)[C@H](CO)NC(=O)CNC(=O)CC[C@H](NC(=O)CCCCCCCCCCCCCCCCC(=O)O)C(=O)O)C(=O)N[C@@H](C)C(N)=O [Compound 15]

# Continued, compound first:
Structure (SMILES),Ratio GLP-1/Glucagon,"pEC50 (cAMP formation, CHO cells expressing human GLP-1-R, 15 min, read-out: EC50 hGLP-1R CHO-K1)"
"CC[C@H](C)[C@H](NC(=O)[C@H](Cc1ccccc1)NC(=O)[C@H](CC(=O)O)NC(=O)[C@H](Cc1c[nH]cn1)NC(=O)[C@H](C)NC(=O)[C@H](C)NC(=O)[C@H](CCCNC(=N)N)NC(=O)[C@H](CCCCNC(=O)COCCOCCNC(=O)COCCOCCNC(=O)CC[C@H](NC(=O)CCCCCCCCCCCCCCCCC(=O)O)C(=O)O)NC(=O)[C@H](CCC(=O)O)NC(=O)[C@H](CC(C)C)NC(=O)[C@H](Cc1ccc(O)cc1)NC(=O)[C@H](CCCCN)NC(=O)[C@H](CO)NC(=O)[C@H](Cc1ccc(O)cc1)NC(=O)[C@H](CC(=O)O)NC(=O)[C@H](CO)NC(=O)[C@@H](NC(=O)[C@H](Cc1ccccc1)NC(=O)[C@@H](NC(=O)CNC(=O)[C@H](CCC(N)=O)NC(=O)C(C)(C)NC(=O)[C@@H](N)Cc1c[nH]cn1)[C@@H](C)O)[C@@H](C)O)C(=O)N[C@@H](CCC(=O)O)C(=O)N[C@@H](Cc1c[nH]c2ccccc12)C(=O)N[C@@H](CC(C)C)C(=O)N[C@@H](CCC(=O)O)C(=O)N[C@@H](CO)C(=O)N[C@@H](C)C(N)=O [Compound 8, H-H-Aib-QGTFTSDYSKYLE-K([17-carboxy-heptadecanoyl]-isoGlu-Peg3-Peg3)-RAAHDFIEWLESA-NH2] (H-H[Aib]QGTFTSDYSKYLEK([AEEA-AEEA-γGlu-C18 diacid])RAAHDFIEWLESA-NH2)",2.58,–
"CC[C@H](C)[C@H](NC(=O)[C@H](Cc1ccccc1)NC(=O)[C@H](CC(=O)O)NC(=O)[C@H](CCCCN)NC(=O)[C@H](C)NC(=O)[C@H](C)NC(=O)[C@H](CCCNC(=N)N)NC(=O)[C@H](CCCCNC(=O)CNC(=O)CNC(=O)[C@H](CO)NC(=O)CNC(=O)[C@H](CO)NC(=O)CNC(=O)CC[C@H](NC(=O)CCCCCCCCCCCCCCCCC(=O)O)C(=O)O)NC(=O)[C@H](CCC(=O)O)NC(=O)[C@H](CC(C)C)NC(=O)[C@H](Cc1ccc(O)cc1)NC(=O)[C@H](CCCCN)NC(=O)[C@H](CO)NC(=O)[C@H](Cc1ccc(O)cc1)NC(=O)[C@H](CC(=O)O)NC(=O)[C@H](CO)NC(=O)[C@@H](NC(=O)[C@H](Cc1ccccc1)NC(=O)[C@@H](NC(=O)CNC(=O)[C@H](CCC(N)=O)NC(=O)C(C)(C)NC(=O)[C@@H](N)Cc1c[nH]cn1)[C@@H](C)O)[C@@H](C)O)C(=O)N[C@@H](CCC(=O)O)C(=O)N[C@@H](Cc1c[nH]c2ccccc12)C(=O)N[C@@H](CC(C)C)C(=O)N[C@@H](CCC(=O)O)C(=O)N[C@@H](CO)C(=O)N[C@@H](C)C(N)=O [Compound 6, H-H-Aib-QGTFTSDYSKYLE-K([17-carboxy-heptadecanoyl]-isoGlu-GSGSGG)-RAAKDFIEWLESA-NH2]",3.25,–
"CC[C@H](C)[C@H](NC(=O)[C@H](Cc1ccccc1)NC(=O)[C@H](CC(=O)O)NC(=O)[C@H](CCCCN)NC(=O)[C@H](C)NC(=O)[C@H](C)NC(=O)[C@H](CCCCNC(=O)CC[C@H](NC(=O)CCCCCCCCCCCCCCCCC(=O)O)C(=O)O)NC(=O)[C@H](CCC(=O)O)NC(=O)[C@H](CC(=O)O)NC(=O)[C@H](CC(C)C)NC(=O)[C@H](Cc1ccc(O)cc1)NC(=O)[C@H](CCCCN)NC(=O)[C@H](CO)NC(=O)[C@H](Cc1ccc(O)cc1)NC(=O)[C@H](CC(=O)O)NC(=O)[C@H](CO)NC(=O)[C@@H](NC(=O)[C@H](Cc1ccccc1)NC(=O)[C@@H](NC(=O)CNC(=O)[C@H](CCC(N)=O)NC(=O)C1(NC(=O)[C@@H](N)Cc2c[nH]cn2)CCC1)[C@@H](C)O)[C@@H](C)O)C(=O)N[C@@H](CCC(=O)O)C(=O)N[C@@H](Cc1c[nH]c2ccccc12)C(=O)N[C@@H](CC(C)C)C(=O)N[C@@H](CCC(=O)O)C(=O)N[C@@H](CO)C(=O)N[C@@H](C)C(N)=O [Compound 11, H-H-Ac4c-QGTFTSDYSKYLDE-K([17-carboxy-heptadecanoyl]-isoGlu)-AAKDFIEWLESA-NH2]",2.00,–
